From patent US9051299B2, “Imidazolyl methyl piperidine T-type calcium channel antagonists” (Merck Sharp & Dohme Corp., priority 2012, dated 2015)

Columns and labels:
[1] = target: T1, T-type calcium channel A1i (alpha-1I, CaV 3.3) (Homo sapiens, UniProt Q9P0X4); assay: FLIPR Ca2+ Flux Assay, depolarized state; assay type: cell-based; conditions: measure of the ability to inhibit T-type calcium channel
T1 construct: expressed in transfected cells; host or cells: HEK 293 cells, tetracycline-inducible expression (Zeocin/Blasticidin selection)
T1 sequence (Q9P0X4 whole entry): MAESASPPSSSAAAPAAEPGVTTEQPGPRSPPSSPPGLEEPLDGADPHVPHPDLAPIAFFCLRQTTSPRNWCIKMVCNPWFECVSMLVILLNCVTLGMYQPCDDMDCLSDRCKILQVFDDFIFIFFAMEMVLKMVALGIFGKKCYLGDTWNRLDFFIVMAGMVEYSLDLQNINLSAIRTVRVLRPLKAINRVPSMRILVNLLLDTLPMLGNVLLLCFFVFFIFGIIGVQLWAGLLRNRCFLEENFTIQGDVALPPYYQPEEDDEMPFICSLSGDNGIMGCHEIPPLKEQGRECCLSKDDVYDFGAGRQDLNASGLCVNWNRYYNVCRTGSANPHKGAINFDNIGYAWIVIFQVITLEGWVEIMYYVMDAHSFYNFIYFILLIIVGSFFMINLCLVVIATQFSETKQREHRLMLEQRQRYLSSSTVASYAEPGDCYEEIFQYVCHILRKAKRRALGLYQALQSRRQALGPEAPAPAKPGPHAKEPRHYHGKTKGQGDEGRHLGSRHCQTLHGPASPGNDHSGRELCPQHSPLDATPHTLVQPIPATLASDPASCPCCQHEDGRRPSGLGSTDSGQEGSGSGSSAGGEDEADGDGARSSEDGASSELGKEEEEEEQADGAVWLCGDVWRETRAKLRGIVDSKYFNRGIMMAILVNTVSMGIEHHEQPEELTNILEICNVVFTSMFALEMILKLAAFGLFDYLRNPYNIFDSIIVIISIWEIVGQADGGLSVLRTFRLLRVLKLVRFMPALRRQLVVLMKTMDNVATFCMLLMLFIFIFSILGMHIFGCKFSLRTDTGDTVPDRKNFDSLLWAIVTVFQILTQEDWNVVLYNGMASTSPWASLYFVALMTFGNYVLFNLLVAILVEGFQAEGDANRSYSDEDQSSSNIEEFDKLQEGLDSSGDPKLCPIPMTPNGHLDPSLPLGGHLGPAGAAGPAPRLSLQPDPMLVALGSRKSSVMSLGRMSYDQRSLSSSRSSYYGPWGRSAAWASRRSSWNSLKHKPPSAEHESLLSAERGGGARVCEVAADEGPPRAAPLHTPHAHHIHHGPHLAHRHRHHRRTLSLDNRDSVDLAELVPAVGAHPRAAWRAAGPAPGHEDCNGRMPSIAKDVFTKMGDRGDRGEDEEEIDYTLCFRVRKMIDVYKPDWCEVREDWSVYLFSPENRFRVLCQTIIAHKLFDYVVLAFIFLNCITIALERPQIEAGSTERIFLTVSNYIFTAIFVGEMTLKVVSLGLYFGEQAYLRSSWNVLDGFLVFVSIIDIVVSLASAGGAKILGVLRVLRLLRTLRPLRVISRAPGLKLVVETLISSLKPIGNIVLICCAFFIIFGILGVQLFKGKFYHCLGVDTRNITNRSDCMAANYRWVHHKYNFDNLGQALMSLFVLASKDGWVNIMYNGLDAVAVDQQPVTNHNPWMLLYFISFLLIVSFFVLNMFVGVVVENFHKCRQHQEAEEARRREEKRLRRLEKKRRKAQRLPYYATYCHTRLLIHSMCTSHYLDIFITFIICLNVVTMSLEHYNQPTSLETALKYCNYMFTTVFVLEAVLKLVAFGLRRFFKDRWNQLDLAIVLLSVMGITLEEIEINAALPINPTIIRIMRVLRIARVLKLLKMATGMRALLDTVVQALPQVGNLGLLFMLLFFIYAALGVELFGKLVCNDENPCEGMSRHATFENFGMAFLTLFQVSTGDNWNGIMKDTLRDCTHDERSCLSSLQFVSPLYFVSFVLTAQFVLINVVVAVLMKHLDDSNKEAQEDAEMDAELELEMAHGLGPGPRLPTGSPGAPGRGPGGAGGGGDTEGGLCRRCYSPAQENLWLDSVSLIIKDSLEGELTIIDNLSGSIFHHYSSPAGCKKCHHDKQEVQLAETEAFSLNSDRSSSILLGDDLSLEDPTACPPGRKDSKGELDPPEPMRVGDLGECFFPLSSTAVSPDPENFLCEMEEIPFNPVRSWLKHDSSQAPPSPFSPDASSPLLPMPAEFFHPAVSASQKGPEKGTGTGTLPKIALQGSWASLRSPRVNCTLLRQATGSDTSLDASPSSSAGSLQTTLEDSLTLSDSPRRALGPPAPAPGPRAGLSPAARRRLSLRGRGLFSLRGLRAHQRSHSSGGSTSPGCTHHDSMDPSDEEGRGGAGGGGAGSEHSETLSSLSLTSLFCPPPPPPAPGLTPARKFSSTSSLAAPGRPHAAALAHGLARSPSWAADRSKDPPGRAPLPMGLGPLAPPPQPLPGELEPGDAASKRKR

[2] = target: T1, T-type calcium channel A1i (alpha-1I, CaV 3.3); assay: FLIPR Ca2+ Flux Assay, hyperpolarized state; assay type: cell-based; conditions: measure of the ability to inhibit T-type calcium channel, read-out: Ali Hyperpolarized

| Compound | IC50 [1] [nM] | IC50 [2] [nM] |
| --- | --- | --- |
| O=C(c1cccc(Cl)c1)C1CCN(Cc2c[nH]c(-c3ccccc3)n2)CC1 [Example 3, (3-chlorophenyl)-[1-[(2-phenyl-1H-imidazol-4-yl)methyl]-4-piperidyl]methanone] | 2090 | 129 |
| COc1ccc(C(=O)C2CCN(Cc3c[nH]c(-c4ccccc4)n3)CC2)cc1 [Example 6, (4-methoxyphenyl)-[1-[(2-phenyl-1H-imidazol-4-yl)methyl]-4-piperidyl]methanone] | > 10000 | 1060 |
| Cc1nc(CN2CCC(C(=O)c3cccc(C(F)(F)F)c3)CC2)c[nH]1 [Example 9, [1-[(2-methyl-1H-imidazol-4-yl)methyl]-4-piperidyl]-[3-(trifluoromethyl)phenyl]methanone] | > 10000 | 7600 |
| O=C(c1ccc2nonc2c1)C1CCN(Cc2c[nH]c(-c3ccccc3)n2)CC1 [Example 4, 2,1,3-benzoxadiazol-5-yl-[1-[(2-phenyl-1H-imidazol-4-yl)methyl]-4-piperidyl]methanone] | 2870 | 155 |
| CCc1nc(C)c(CN2CCC(C(=O)c3cccc(C(F)(F)F)c3)CC2)[nH]1 [Example 10, [1-[(2-ethyl-4-methyl-1H-imidazol-5-yl)methyl]-4-piperidyl]-[3-(trifluoromethyl)phenyl]methanone] | > 10000 | 6900 |
| Cc1ccc(C(=O)C2CCN(Cc3c[nH]c(-c4ccccc4)n3)CC2)cc1 [Example 7, [1-[(2-phenyl-1H-imidazol-4-yl)methyl]-4-piperidyl]-(p-tolyl)methanone] | 7090 | 644 |
| O=C(c1ccc(F)c(F)c1)C1CCN(Cc2c[nH]c(-c3ccccc3)n2)CC1 [Example 5, (3,4-difluorophenyl)-[1-[(2-phenyl-1H-imidazol-4-yl)methyl]-4-piperidyl]methanone] | 4060 | 686 |
| O=C(c1ccc(F)cc1)C1CCN(Cc2c[nH]c(-c3ccccc3)n2)CC1 [Example 2] | 3180 | 242 |
| O=C(c1cccc(C(F)(F)F)c1)C1CCN(Cc2cnc(-c3ccccc3)[nH]2)CC1 [Example 1, (1-((2-Phenyl-1H-imidazol-5-yl)methyl)piperidin-4-yl)(3-(trifluoromethyl)phenyl)-methanone] | 742 | 70 |
| Cc1cccc(C(=O)C2CCN(Cc3c[nH]c(-c4ccccc4)n3)CC2)c1 [Example 8, m-tolyl-[1-[(2-phenyl-1H-imidazol-4-yl)methyl]-4-piperidyl]methanone] | 4620 | 313 |
